Measurements published in the NIST ThermoML archive (doi:10.1021/je700714m).
Numbers after ± are expanded uncertainties.

What was measured:
[1] = xn = mol fraction of the nth substance listed; conditions: for mass density / speed of sound / viscosity: 100 kPa, Liquid
[2] = refractive index (Na D-line) (dimensionless); xn = mol fraction of the nth substance listed; conditions: 100 kPa, Liquid

COc1ccc(C=O)cc1 [4-methoxybenzaldehyde] + Clc1ccccc1
Conditions	mass density, [1] [kg/m3]	refractive index, [2]	speed of sound, [1] [m/s]	surface tension liquid-gas, [1] [mN/m]	viscosity, [1] [mPa·s]
303.15 K, x1 = 0.144	1105.1 ± 4.7	1.5589 ± 0.0012	1339 ± 180	43.12 ± 2.3	0.8478 ± 0.086
303.15 K, x1 = 0.2517	1107 ± 4.7	1.5587 ± 0.0012	1383 ± 190	50.12 ± 2.6	1.023 ± 0.1
303.15 K, x1 = 0.3354	1109.1 ± 4.7	1.5586 ± 0.0012	1418 ± 190	56 ± 2.9	1.168 ± 0.11
303.15 K, x1 = 0.4308	1111.2 ± 4.7	1.5585 ± 0.0012	1459 ± 190	62.5 ± 3.2	1.334 ± 0.13
303.15 K, x1 = 0.5457	1113.2 ± 4.7	1.5583 ± 0.0012	1505 ± 200	70.14 ± 3.6	1.566 ± 0.15
303.15 K, x1 = 0.6271	1115.3 ± 4.7	1.5581 ± 0.0012	1537 ± 200	75.82 ± 3.8	1.771 ± 0.16
303.15 K, x1 = 0.7371	1118 ± 4.7	1.5578 ± 0.0012	1580 ± 210	84.11 ± 4.2	2.086 ± 0.19
303.15 K, x1 = 0.8079	1122 ± 4.8	1.5576 ± 0.0012	1607 ± 210	87.59 ± 4.4	2.353 ± 0.21
303.15 K, x1 = 0.9439	1124 ± 4.8	1.5572 ± 0.0012	1662 ± 210	96.09 ± 4.8	2.948 ± 0.26
303.15 K, x1 = 1	1125.5 ± 4.8	1.5571 ± 0.0012	1684 ± 220	99.08 ± 4.9	3.275 ± 0.29
313.15 K, x1 = 0.144	1085.1 ± 4.9	1.5508 ± 0.0012	820 ± 130	41.6 ± 2.2	0.7705 ± 0.079
313.15 K, x1 = 0.2517	1089.3 ± 5	1.5507 ± 0.0012	924 ± 140	49.11 ± 2.6	0.9236 ± 0.092
313.15 K, x1 = 0.3354	1092.1 ± 5	1.5506 ± 0.0012	1004 ± 150	55.33 ± 2.9	1.047 ± 0.1
313.15 K, x1 = 0.4308	–	1.5504 ± 0.0012	1097 ± 160	62.12 ± 3.2	1.178 ± 0.11
313.15 K, x1 = 0.5457	1100.5 ± 5	1.5502 ± 0.0012	1207 ± 170	71.23 ± 3.6	1.357 ± 0.13
313.15 K, x1 = 0.6271	1103.5 ± 5	1.55 ± 0.0012	1283 ± 180	78.22 ± 4	1.497 ± 0.14
313.15 K, x1 = 0.7371	1107.2 ± 5.1	1.5497 ± 0.0012	1385 ± 190	83.11 ± 4.2	1.762 ± 0.16
313.15 K, x1 = 0.8079	1110.2 ± 5.1	1.5494 ± 0.0012	1452 ± 190	86.41 ± 4.3	1.986 ± 0.18
313.15 K, x1 = 0.9439	1116.3 ± 5.1	1.549 ± 0.0012	1577 ± 210	94.66 ± 4.7	2.596 ± 0.23
313.15 K, x1 = 1	1119.1 ± 5.1	1.5488 ± 0.0012	1631 ± 210	96.11 ± 4.8	2.97 ± 0.27
323.15 K, x1 = 0.144	1073.5 ± 5.3	1.548 ± 0.0012	738 ± 120	40.52 ± 2.2	0.6646 ± 0.07
323.15 K, x1 = 0.2517	1078.6 ± 5.3	1.5479 ± 0.0012	758 ± 120	47.99 ± 2.5	0.8222 ± 0.083
323.15 K, x1 = 0.3354	1082.5 ± 5.3	1.5478 ± 0.0012	850 ± 130	53.34 ± 2.8	0.9386 ± 0.093
323.15 K, x1 = 0.4308	1086.3 ± 5.3	1.5477 ± 0.0012	955 ± 140	60.11 ± 3.1	1.059 ± 0.1
323.15 K, x1 = 0.5457	1091.6 ± 5.4	1.5475 ± 0.0012	1082 ± 160	68.77 ± 3.5	1.192 ± 0.12
323.15 K, x1 = 0.6271	1095 ± 5.4	1.5475 ± 0.0012	1170 ± 170	75.22 ± 3.8	1.287 ± 0.12
323.15 K, x1 = 0.7371	1100 ± 5.4	1.5474 ± 0.0012	1290 ± 180	82.89 ± 4.2	1.474 ± 0.14
323.15 K, x1 = 0.8079	1103 ± 5.4	1.547 ± 0.0012	1365 ± 180	85.22 ± 4.3	1.635 ± 0.15
323.15 K, x1 = 0.9439	1110.1 ± 5.4	1.5466 ± 0.0012	1511 ± 200	93.44 ± 4.7	2.122 ± 0.19
323.15 K, x1 = 1	1114.1 ± 5.5	1.5463 ± 0.0012	1571 ± 200	94.1 ± 4.7	2.442 ± 0.22
